# Test results taken from patent publication US7342012B2, “Inhibitors of αLβ2 mediated cell adhesion” (Mitsubishi Tanabe Pharma Corporation, priority 1999, dated 2008).
# Counter-ions that a name gives are not always drawn.
row,SMILES,melting point
1,O=C1N(c2cc(C(F)(F)F)cc(C(F)(F)F)c2)C(=O)C2(Cc3ccc(Br)cc3)CCCN12 (stereo not shown),138 °C
2,"CCN(CC)CCN1CCN2C(=O)N(c3cc(Cl)cc(Cl)c3)C(=O)C2(Cc2ccc(Br)cc2)C1 (stereo not shown) (as salt: HCl) [Example 32, 4-[2-(Diethylamino)ethyl]-6-(4-bromobenzyl)-8-(3,5-dichlorophenyl)-1,4,8-triazabicyclo[4.3.0]nonane-7,9-dione]",223 °C
3,"CN(C)CC(=O)N1CCN2C(=O)N(c3cc(Cl)nc(Cl)c3)C(=O)C2(Cc2ccc(C#N)cc2)C1 (stereo not shown) (as salt: HCl) [Example 166, 6-(4-Cyanobenzyl)-4-dimethylaminoacetyl-8-(2,6-dichloro-4-pyridyl)-1,4,8-triazabicyclo[4.3.0]nonane-7,9-dione]",260.8 °C (dec.)
4,"CC(C)(C)OC(=O)N1CCN2C(=O)N(c3cc(Cl)cc(Cl)c3)C(=O)C2(Cc2ccc(Br)cc2)C1 (stereo not shown) (as salt: Na) [Example 26, 4-(tert-Butoxycarbonyl)-6-(4-bromobenzyl)-8-(3,5-dichlorophenyl)-1,4,8-triazabicyclo[4.3.0]nonane-7,9-dione]",79.5 °C
5,"O=C1N(c2cc(Cl)nc(Cl)c2)C(=O)C2(Cc3ccc(OC(F)(F)F)cc3)C[C@H](n3cccc3)CN12 (stereo in doubt) [Example 251, (5R, 7S)-5-[4-(Trifluoromethoxy)benzyl]-3-(2,6-dichloro-4-pyridyl)-7-(1-pyrrolyl)-1,3-diazabicyclo[3.3.0]octane-2,4-dione]",129.5 °C
6,"O=C1N(c2cc(Cl)cc(Cl)c2)C(=O)C2(Cc3ccc(OC(F)(F)F)cc3)C[C@@H](O)CN12 (stereo in doubt) [Example 268, (5R, 7R)-5-[4-(Trifluoromethoxy)benzyl]-3-(3,5-dichlorophenyl)-7-hydroxy-1,3-diazabicyclo[3.3.0]octane-2,4-dione]",50.4 °C
7,"O=C1N(c2cc(Cl)cc(Cl)c2)C(=O)C2(Cc3ccc(Br)cc3)CCCN12 (stereo not shown) [Example 1, 5-(4-Bromobenzyl)-3-(3,5-dichlorophenyl)-1,3-diazabicyclo[3.3.0]octane-2,4-dione]",69.4 °C
8,"O=C1N(c2cc(Cl)cc(Cl)c2)C(=O)[C@]2(Cc3ccc(Br)cc3)C[C@@H](O)CN12 [Example 2, (5S, 7R)-5-(4-Bromobenzyl)-3-(3,5-dichlorophenyl)-7-hydroxy-1,3-diazabicyclo[3.3.0]octane-2,4-dione]",136.1 °C
9,"[N-]=[N+]=N[C@@H]1CN2C(=O)N(c3cc(Cl)cc(Cl)c3)C(=O)[C@]2(Cc2ccc(Br)cc2)C1 [Example 3, (5S,7S)-5-(4-Bromobenzyl)-3-(3,5-dichlorophenyl)-7-azido-1,3-diazabicyclo[3.3.0]octane-2,4-dione]",58.9 °C
10,"CC(=O)O[C@@H]1CN2C(=O)N(c3cc(Cl)cc(Cl)c3)C(=O)[C@]2(Cc2ccc(Br)cc2)C1 [Example 4, (5S,7S)-5-(4-Bromobenzyl)-3-(3,5-dichlorophenyl)-7-acetoxy-1,3-diazabicyclo[3.3.0]octane-2,4-dione]",149.8 °C
11,"O=C1N(c2cc(Cl)cc(Cl)c2)C(=O)[C@]2(Cc3ccc(Br)cc3)C[C@H](O)CN12 [Example 5, (5S,7S)-5-(4-Bromobenzyl)-3-(3,5-dichlorophenyl)-7-hydroxy-1,3-diazabicyclo[3.3.0]octane-2,4-dione]",88.3 °C
12,"O=C1N(c2cc(Cl)cc(Cl)c2)C(=O)C2(Cc3ccc(Br)cc3)CCCCN12 (stereo not shown) [Example 6, 6-(4-Bromobenzyl)-8-(3,5-dichlorophenyl)-1,8-diazabicyclo[4.3.0]nonane-7,9-dione]",128.8 °C
13,"O=C1N(c2cc(Cl)cc(Cl)c2)C(=O)C2(Cc3ccc(-c4cccnc4)cc3)CCCCN12 (stereo not shown) [Example 7, 6-[4-(3-Pyridyl)benzyl]-8-(3,5-dichlorophenyl)-1,8-diazabicyclo[4.3.0]nonane-7,9-dione]",276.5 °C
14,"O=C1N(c2cc(Cl)cc(Cl)c2)C(=O)C2(Cc3ccc(Br)cc3)CNCCN12 (stereo not shown) [Example 27, 6-(4-Bromobenzyl)-8-(3,5-dichlorophenyl)-1,4,8-triazabicyclo[4.3.0]nonane-7,9-dione]",92.5 °C
15,"CC(=O)N1CCN2C(=O)N(c3cc(Cl)cc(Cl)c3)C(=O)C2(Cc2ccc(Br)cc2)C1 (stereo not shown) [Example 28, 4-Acetyl-6-(4-bromobenzyl)-8-(3,5-dichloro-phenyl)-1,4,8-triazabicyclo[4.3.0]nonane-7,9-dione]",89.6 °C
16,"CN1CCN2C(=O)N(c3cc(Cl)cc(Cl)c3)C(=O)C2(Cc2ccc(Br)cc2)C1 (stereo not shown) [Example 29, 4-Methyl-6-(4-bromobenzyl)-8-(3,5-dichloro-phenyl)-1,4,8-triazabicyclo[4.3.0]nonane-7,9-dione]",221 °C
17,"CC(C)(C)OC(=O)CN1CCN2C(=O)N(c3cc(Cl)cc(Cl)c3)C(=O)C2(Cc2ccc(Br)cc2)C1 (stereo not shown) [Example 30, 4-(tert-Butoxycarbonylmethyl)-6-(4-bromobenzyl)-8-(3,5-dichlorophenyl)-1,4,8-triazabicyclo[4.3.0]nonane-7,9-dione]",74.7 °C

row,SMILES,melting point
1,"CN(C)CC(=O)N1CCN2C(=O)N(c3cc(Cl)cc(Cl)c3)C(=O)C2(Cc2ccc(Br)cc2)C1 (stereo not shown) [Example 31, 4-[(Dimethylamino)acetyl]-6-(4-bromobenzyl)-8-(3,5-dichlorophenyl)-1,4,8-triazabicyclo[4.3.0]nonane-7,9-dione]",73.5 °C
2,"CS(=O)(=O)N1CCN2C(=O)N(c3cc(Cl)cc(Cl)c3)C(=O)C2(Cc2ccc(Br)cc2)C1 (stereo not shown) [Example 33, 4-Methanesulfonyl-6-(4-bromobenzyl)-8-(3,5-dichlorophenyl)-1,4,8-triazabicyclo[4.3.0]nonane-7,9-dione]",229 °C
3,"O=C(O)CN1CCN2C(=O)N(c3cc(Cl)cc(Cl)c3)C(=O)C2(Cc2ccc(Br)cc2)C1 (stereo not shown) [Example 34, 4-Carboxymethyl-6-(4-bromobenzyl)-8-(3,5-dichlorophenyl)-1,4,8-triazabicyclo[4.3.0]nonane-7,9-dione]",236.5 °C
4,"O=C1CN2C(=O)N(c3cc(Cl)cc(Cl)c3)C(=O)C2(Cc2ccc(Br)cc2)C1 (stereo not shown) [Example 35, 5-(4-Bromobenzyl)-3-(3,5-dichlorophenyl)-1,3-diazabicyclo[3.3.0]octane-2,4,7-trione]",85.4 °C
5,"COC(=O)C=C1CN2C(=O)N(c3cc(Cl)cc(Cl)c3)C(=O)C2(Cc2ccc(Br)cc2)C1 (stereo not shown) [Example 36, 5-(4-Bromobenzyl)-3-(3,5-dichlorophenyl)-7-methoxycarbonylmethylene-1,3-diazabicyclo[3.3.0]octane-2,4-dione]",74.9 °C
6,"O=C(O)CC1=CC2(Cc3ccc(Br)cc3)C(=O)N(c3cc(Cl)cc(Cl)c3)C(=O)N2C1 (stereo not shown) [Example 37, 5-(4-Bromobenzyl)-3-(3,5-dichlorophenyl)-7-carboxymethyl-1,3-diazabicyclo[3.3.0]oct-6-ene-2,4-dione]",101.5 °C
7,"N[C@@H]1CN2C(=O)N(c3cc(Cl)cc(Cl)c3)C(=O)[C@@]2(Cc2ccc(Br)cc2)C1 [Example 47, (5R,7S)-5-(4-Bromobenzyl)-3-(3,5-dichlorophenyl)-7-amino-1,3-diazabicyclo[3.3.0]octane-2,4-dione]",64.4 °C
8,"CC(=O)N[C@@H]1CN2C(=O)N(c3cc(Cl)cc(Cl)c3)C(=O)[C@@]2(Cc2ccc(Br)cc2)C1 [Example 48, (5R,7S)-5-(4-Bromobenzyl)-3-(3,5-dichlorophenyl)-7-acetamido-1,3-diazabicyclo[3.3.0]octane-2,4-dione]",140.7 °C
9,"CN(C)[C@@H]1CN2C(=O)N(c3cc(Cl)cc(Cl)c3)C(=O)[C@@]2(Cc2ccc(Br)cc2)C1 [Example 50, (5R,7S)-5-(4-Bromobenzyl)-3-(3,5-dichlorophenyl)-7-dimethylamino-1,3-diazabicyclo[3.3.0]octane-2,4-dione]",54 °C
10,"N#Cc1ccc(CC23CCCN2C(=O)N(c2cc(Cl)cc(-n4cccc4)c2)C3=O)cc1 (stereo not shown) [Example 51, 5-(4-Cyanobenzyl)-3-[3-chloro-5-(1-pyrrolyl)-phenyl]-1,3-diazabicyclo[3.3.0]octane-2,4-dione]",266.5 °C
11,"N#Cc1ccc(CC23CCCN2C(=O)N(c2cc(Cl)cc(-n4cccc4C=O)c2)C3=O)cc1 (stereo not shown) [Example 52, 5-(4-Cyanobenzyl)-3-[3-chloro-5-(2-formyl-1-pyrrolyl)-phenyl]-1,3-diazabicyclo[3.3.0]octane-2,4-dione]",109.7 °C
12,"O=C1N(c2cc(Cl)nc(Cl)c2)C(=O)C2(Cc3ccc(Br)cc3)CCCN12 (stereo not shown) [Example 55, 3-(2,6-dichloro-4-pyridyl)-5-(4-bromobenzyl)-1,3-diazabicyclo[3.3.0]octane-2,4-dione]",76.3 °C
13,"CC(C)(C)OC(=O)N1CCC2(Cc3ccc(C#N)cc3)C(=O)N(c3cc(Cl)nc(Cl)c3)C(=O)N12 (stereo not shown) [Example 56, 8-(t-Butoxycarbonyl)-5-(4-cyanobenzyl)-3-(2,6-dichloro-4-pyridyl)-1,3,8-triazabicyclo[3.3.0]octane-2,4-dione]",179 °C
14,"N#Cc1ccc(CC23CCNN2C(=O)N(c2cc(Cl)nc(Cl)c2)C3=O)cc1 (stereo not shown) [Example 57, 5-(4-Cyanobenzyl)-3-(2,6-dichloro-4-pyridyl)-1,3,8-triazabicyclo [3.3.0]octane-2,4-dione]",187 °C
15,"O=C1N(c2cc(Cl)nc(Cl)c2)C(=O)[C@@]2(Cc3ccc(OC(F)(F)F)cc3)C[C@@H](O)CN12 [Example 58, (5R,7R)-5-[4-(Trifluoromethoxy)benzyl]-3-(2,6-dichloro-4-pyridyl)-7-hydroxy-1,3-diazabicyclo[3.3.0]octane-2,4-dione]",52.4 °C
16,"O=C1N(c2cc(Cl)nc(Cl)c2)C(=O)[C@]2(Cc3ccc(OC(F)(F)F)cc3)C[C@@H](O)CN12 [Example 59, (5S,7R)-5-[4-(Trifluoromethoxy)benzyl]-3-(2,6-dichloro-4-pyridyl)-7-hydroxy-1,3-diazabicyclo[3.3.0]octane-2,4-dione]",162.3 °C
17,"N#Cc1ccc(C[C@]23C[C@@H](O)CN2C(=O)N(c2cc(Cl)nc(Cl)c2)C3=O)cc1 [Example 60, (5R,7R)-5-(4-Cyanobenzyl)-3-(2,6-dichloro-4-pyridyl)-7-hydroxy-1,3-diazabicyclo[3.3.0]octane-2,4-dione]",97.6 °C
